Here are results for 38 molecules from the Kinase Knowledgebase extract (Sharma et al. 2016).

Molecules are shown by their SMILES.

In the assay the target is ROCK2 (human) (UniProt O75116). The assay is described as follows: Inhibition of ROCK2 Kinase Activity.
ROCK2 (human), sequence (O75116 whole entry, looked up): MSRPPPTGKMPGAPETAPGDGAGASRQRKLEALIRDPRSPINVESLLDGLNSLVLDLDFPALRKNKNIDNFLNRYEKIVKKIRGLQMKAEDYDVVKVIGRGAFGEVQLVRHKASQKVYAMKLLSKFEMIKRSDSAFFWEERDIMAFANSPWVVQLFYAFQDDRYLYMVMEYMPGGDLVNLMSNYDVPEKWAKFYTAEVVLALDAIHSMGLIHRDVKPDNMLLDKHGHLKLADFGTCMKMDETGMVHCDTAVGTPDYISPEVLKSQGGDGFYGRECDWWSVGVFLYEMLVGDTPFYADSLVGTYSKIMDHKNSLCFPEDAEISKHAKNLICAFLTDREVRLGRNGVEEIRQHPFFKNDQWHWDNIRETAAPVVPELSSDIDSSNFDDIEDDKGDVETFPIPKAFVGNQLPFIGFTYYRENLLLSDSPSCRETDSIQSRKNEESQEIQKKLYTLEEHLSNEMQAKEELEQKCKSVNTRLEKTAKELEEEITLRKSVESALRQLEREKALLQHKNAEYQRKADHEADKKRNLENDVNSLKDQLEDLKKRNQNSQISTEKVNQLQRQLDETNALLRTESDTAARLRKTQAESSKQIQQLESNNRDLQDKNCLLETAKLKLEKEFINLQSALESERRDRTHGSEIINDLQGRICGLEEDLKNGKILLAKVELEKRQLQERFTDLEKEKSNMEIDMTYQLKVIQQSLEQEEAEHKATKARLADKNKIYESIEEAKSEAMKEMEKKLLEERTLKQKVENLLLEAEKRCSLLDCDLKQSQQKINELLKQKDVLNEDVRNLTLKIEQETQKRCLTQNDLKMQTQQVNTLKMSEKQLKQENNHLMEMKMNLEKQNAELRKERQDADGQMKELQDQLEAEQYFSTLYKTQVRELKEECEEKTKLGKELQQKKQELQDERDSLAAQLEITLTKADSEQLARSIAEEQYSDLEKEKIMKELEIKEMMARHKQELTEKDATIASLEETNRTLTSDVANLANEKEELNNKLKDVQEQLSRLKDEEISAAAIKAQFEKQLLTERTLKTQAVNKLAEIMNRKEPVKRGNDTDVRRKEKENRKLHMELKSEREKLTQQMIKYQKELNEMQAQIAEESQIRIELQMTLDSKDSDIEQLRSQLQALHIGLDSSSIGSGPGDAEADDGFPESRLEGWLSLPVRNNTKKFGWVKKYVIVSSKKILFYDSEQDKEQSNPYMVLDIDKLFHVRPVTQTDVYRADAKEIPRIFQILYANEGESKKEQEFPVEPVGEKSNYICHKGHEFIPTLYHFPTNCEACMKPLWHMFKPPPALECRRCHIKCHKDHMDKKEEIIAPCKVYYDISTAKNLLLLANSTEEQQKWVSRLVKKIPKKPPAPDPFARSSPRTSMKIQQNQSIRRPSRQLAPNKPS

On to `O=C(NCc1nc(-c2ccncc2)n[nH]1)c1ccc(CO)cc1`, for which the IC50 (in general, the concentration that gives 50% inhibition) was not above 5 µM.

`Cc1cccc(C(=O)NCc2nc(-c3c[nH]c4ncccc34)n[nH]2)c1O` returned a half-inhibitory concentration (IC50) of more than 5 µM.

For the molecule `COc1cccc(O)c1C(=O)NCc1nc(-c2ccncc2)n[nH]1`, the IC50 was not above 5 µM.

`O=C(NCc1nc(-c2ccncc2)n[nH]1)c1cccc(Br)n1`: the IC50 was more than 5 µM.

`CC1=NN(c2ccc(C(=O)NCc3nc(-c4c[nH]c5ncccc45)n[nH]3)cc2)C(=O)C1` showed an IC50 of more than 5 µM.

Take `O=C(NCc1nc(-c2ccncc2)n[nH]1)c1nccs1`: the IC50 was not above 5 µM.

`CC(C)(C)OC(=O)NC[C@H](NC(=O)c1ccc(O)cc1O)c1nc(-c2ccncc2)n[nH]1`: the half-inhibitory concentration (IC50) is not above 5 µM.

In turn, `CC(C)Oc1ccc(C(=O)NCc2nc(-c3c[nH]c4ncccc34)n[nH]2)cc1` returned an IC50 of more than 5 µM.

Molecule `O=C(NCc1nc(-c2c[nH]c3ncccc23)n[nH]1)C(O)CCl` (stereo not drawn) returned a half-inhibitory concentration (IC50) of more than 5 µM.

As to `O=C(C=Cc1cccc(O)c1)NCc1nc(-c2ccncc2)n[nH]1`, the concentration for half-maximal inhibition (IC50) is more than 5 µM.

In turn, `O=C(NCc1nc(-c2c[nH]c3ncccc23)n[nH]1)c1cnc[nH]1` displayed a concentration for half-maximal inhibition (IC50) of more than 5 µM.

Molecule `CS(=O)(=O)Nc1cccc(C(=O)NCc2nc(-c3c[nH]c4ncccc34)cs2)c1` yielded an IC50 not above 5 µM.

Turning to `O=C(NCc1nc(-c2ccncc2)n[nH]1)c1ncc[nH]1`, the half-inhibitory concentration (IC50) is more than 5 µM.

The molecule `O=C(NCc1nc(-c2ccncc2)n[nH]1)c1cccc(O)c1O` registered an IC50 of more than 5 µM.

As for `O=C(NCc1nc(-c2ccncc2)n[nH]1)c1ccc(O)cc1O`, the half-maximal inhibitory concentration (IC50) is not above 5 µM.

Consider `COc1cccc(O)c1C(=O)NCc1nc(-c2c[nH]c3ncccc23)n[nH]1`, for which the IC50 is more than 5 µM.

In the case of `Cc1ccc(SCC(=O)NCc2nc(-c3ccncc3)n[nH]2)cc1`, the concentration for half-maximal inhibition (IC50) is more than 5 µM.

Consider `CC(NC(=O)OC(C)(C)C)C(=O)NCc1nc(-c2ccncc2)n[nH]1` (stereo not drawn), for which the half-maximal inhibitory concentration (IC50) is more than 5 µM.

For the molecule `O=C(C=Cc1cccc(O)c1)NCc1nc(-c2c[nH]c3ncccc23)n[nH]1`, the IC50 was more than 5 µM.

In turn, `O=C(NCc1nc(-c2c[nH]c3ncccc23)n[nH]1)c1ccccc1O` displayed an IC50 of more than 5 µM.

Turning to `CCc1cccc(C(=O)NCc2nc(-c3ccncc3)n[nH]2)c1O`, the concentration for half-maximal inhibition (IC50) is not above 5 µM.

Molecule `O=C(NCc1nc(-c2ccncc2)n[nH]1)c1ccsc1` gave an IC50 not above 5 µM.

Take `O=C(NCc1nc(-c2ccncc2)c[nH]1)c1cccs1`: the IC50 was not above 5 µM.

Turning to `O=C(NCc1ncc(-c2ccncc2)s1)c1cccs1`, the 50% inhibitory concentration (IC50) was more than 5 µM.

Turning to `O=C(NCc1nc(-c2ccncc2)n[nH]1)c1ccc2c(c1)OCO2`, the IC50 is more than 5 µM.

The molecule `O=C(NCc1nc(-c2c[nH]c3ncccc23)n[nH]1)c1ccccc1C(=O)c1ccc(O)cc1` had an IC50 of more than 5 µM.

`CC(C)C(NC(=O)OC(C)(C)C)C(=O)NCc1nc(-c2c[nH]c3ncccc23)n[nH]1` (stereo not drawn) displayed a half-inhibitory concentration (IC50) of more than 5 µM.

The molecule `Cc1ccc([N+](=O)[O-])c(C(=O)NCc2nc(-c3ccncc3)n[nH]2)c1` displayed an IC50 of more than 5 µM.

Molecule `CC(C)(C)OC(=O)NC(Cc1ccccc1)C(=O)NCc1nc(-c2c[nH]c3ncccc23)n[nH]1` (stereo not drawn) gave an IC50 of more than 5 µM.

As for `O=C(NCc1nc(-c2ccncc2)n[nH]1)c1ccc2ccccc2c1O`, the half-inhibitory concentration (IC50) was not above 5 µM.

Take `CC(C)(C)OC(=O)NCC[C@H](NC(=O)c1ccc(O)cc1O)c1nc(-c2ccncc2)n[nH]1`: the IC50 was not above 5 µM.

In turn, `COc1cccc(OC)c1C(=O)NCc1nc(-c2c[nH]c3ncccc23)n[nH]1` gave a concentration for half-maximal inhibition (IC50) of more than 5 µM.

`O=C(Cc1ccccc1)NCc1nc(-c2c[nH]c3ncccc23)n[nH]1` showed a half-maximal inhibitory concentration (IC50) of more than 5 µM.

In the case of `O=C(NCc1nc(-c2ccncc2)n[nH]1)c1cncc(Br)c1`, the IC50 is more than 5 µM.

The molecule `CCCOc1ccc(C(=O)NCc2nc(-c3ccncc3)n[nH]2)cc1` yielded an IC50 of more than 5 µM.

For `CC(C(=O)NCc1nc(-c2ccncc2)n[nH]1)c1cccc(C(=O)c2ccccc2)c1` (stereo not drawn), the IC50 is more than 5 µM.

As to `Cc1c(Cl)ccc(S(=O)(=O)NCc2nc(-c3ccncc3)n[nH]2)c1O`, the half-maximal inhibitory concentration (IC50) is more than 5 µM.

Molecule `O=C(NCc1nc(-c2ccncc2)n[nH]1)c1ccccc1Cl` returned an IC50 of more than 5 µM.
